PMC12152147, “DDB1 engagement defines the selectivity of S656 analogs for cyclin K degradation over CDK inhibition” (EMBO Reports, 2025)
Read-outs that look alike come from different tables or passages of the source.

Experiments:
[1] = molecular target: T1, CDK9/CyclinT (Homo sapiens, UniProt P50750); test: CDK9/CyclinT in vitro kinase activity, single concentration 1 μM; type: biochemical; conditions: single concentration 1 μM
T1 construct: purchased BPS Bioscience 79628
Procedure: (§1) Kinase activity was assessed using the kinase assay kits from BPS Bioscience for CDK1, CDK9 and CDK12 with Kinase Glo MAX in duplicates. Compounds were tested at a single concentration of 1 μM for CDK1 and CDK9 activity, and in a dilution ranging from 0.64 nM to 50 μM for CDK12 activity. Chemiluminescence was read using the Neo Synergy BioTek plate reader.

[2] = molecular target: T2, CDK1 (Homo sapiens, UniProt P06493); test: CDK1 in vitro kinase activity, single concentration 1 μM; type: biochemical; conditions: single concentration 1 μM
T2 construct: purchased BPS Bioscience 79597
T2 sequence (P06493 whole entry): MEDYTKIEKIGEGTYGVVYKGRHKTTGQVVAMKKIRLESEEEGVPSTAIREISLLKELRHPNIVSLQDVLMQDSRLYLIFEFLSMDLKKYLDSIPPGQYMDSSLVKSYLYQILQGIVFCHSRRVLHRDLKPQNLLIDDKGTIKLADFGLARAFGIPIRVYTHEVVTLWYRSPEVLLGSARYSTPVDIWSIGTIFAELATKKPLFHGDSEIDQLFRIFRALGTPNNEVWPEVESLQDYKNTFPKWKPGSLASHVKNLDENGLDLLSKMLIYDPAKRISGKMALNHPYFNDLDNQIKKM
T2 sequence (P14635 whole entry partner): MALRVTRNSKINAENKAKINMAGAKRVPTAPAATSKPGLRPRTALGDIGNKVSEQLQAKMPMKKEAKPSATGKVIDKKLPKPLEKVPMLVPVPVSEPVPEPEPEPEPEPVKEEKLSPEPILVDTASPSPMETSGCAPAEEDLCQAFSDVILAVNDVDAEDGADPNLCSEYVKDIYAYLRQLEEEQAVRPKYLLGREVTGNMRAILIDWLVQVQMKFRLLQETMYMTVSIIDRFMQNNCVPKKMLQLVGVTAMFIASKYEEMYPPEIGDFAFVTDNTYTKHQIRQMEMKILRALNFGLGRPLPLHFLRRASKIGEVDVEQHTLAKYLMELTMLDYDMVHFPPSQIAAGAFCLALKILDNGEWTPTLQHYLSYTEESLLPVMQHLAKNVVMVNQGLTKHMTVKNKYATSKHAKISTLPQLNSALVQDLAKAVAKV
Procedure: as §1

[3] = test system: OCI-AML5 cells expressing shRNAs targeting CDK1, 2, 4, 7, 9, cyclin K; test: Dose response in OCI-AML5 expressing shRNAs targeting CDK1, 2, 4, 7, 9, cyclin K or control; type: cell-based, H. sapiens; conditions: for Class: class from shRNA IC50 profile and cyclin K-eGFP degradation; for class based on cellular selectivity: IC50 in shRNA OCI-AML5 cells and cyclin KeGFP degradation
[4] = test system: cyclin KeGFP; test: Cyclin KeGFP reporter system (eGFP/mCherry MFI by flow cytometry);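 note: 10 μM compound for 3 h relative to DMSO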; type: cell-based, H. sapiens; conditions: cyclin K-eGFP reporter
Procedure: We used the cyclin KeGFP reporter system previously described (Słabicki et al, [2020]). Lentiviral vector (Addgene plasmid #169930) was used to infect OCI-AML5 at a MOI of 5 and were selected with puromycin. Cells were seeded in methylcellulose and let grown as colonies for 10 days. Colonies were isolated, expanded and selected based on cyclin KeGFP fluorescence in presence and absence of cyclin K degrader molecules. Selected G7 clone was used for all reported experiments. Fluorescent signal of cyclin KeGFP and mCherry were quantified by flow cytometry (BD LSRII) in each condition and the geometric mean fluorescence intensity (MFI) were calculated using FlowJo (BD Biosciences). The ratio of eGFP to mCherry was normalized to DMSO-treated cells.

[5] = test system: OCI-AML5 cells expressing shRNA targeting CUL4A or CUL4B; test: Dose response in OCI-AML5 expressing shRNAs targeting CUL4A, CUL4B or control; type: cell-based, H. sapiens; conditions: ratio of IC50 in shCUL4A vs shCTRL OCI-AML5 cells
[6] = test system: OCI-AML5 cells; test: Dose-response proliferative assay in OCI-AML5 (4 days, CellTiterGlo); type: cell-based, H. sapiens; conditions: read-out: IC50 in AML5
Procedure: Cell lines were purchased from the ATCC or donated from collaborators. OCI-AML5 cell line was cultured in αMEM, 10% heat-inactivated FBS supplemented with 10 ng/mL GM-CSF, OCI-AML1, U2OS and HEK293T cell lines in DMEM, 10% heat-inactivated FBS. Cells were maintained at 37 °C in 5% CO2 atmosphere.
Dose-response assays in primary AML specimens were performed as in chemical screen (see above) with the exception that compounds were tested in serial dilution (8 dilutions, 1:4, 10 μM down to 0.5 nM). Dose-response assays in OCI-AML5 cell line were conducted similarly with the following modifications: 300 cells per well were seeded in 50 μL of cell line media and cell viability was evaluated after 4 days in culture.

[7] = Homo sapiens, OCI-AML-5, OCI-AML5 expressing shRNA CCNK (cyclin K), read-out: IC50 shRNA CCNK
[8] = Homo sapiens, OCI-AML-5, OCI-AML5 expressing shRNA CDK1, read-out: IC50 shRNA CDK1
[9] = Homo sapiens, OCI-AML-5, OCI-AML5 expressing shRNA CDK2, read-out: IC50 shRNA CDK2
[10] = Homo sapiens, OCI-AML-5, OCI-AML5 expressing shRNA CDK4, read-out: IC50 shRNA CDK4
[11] = Homo sapiens, OCI-AML-5, OCI-AML5 expressing shRNA CDK7, read-out: IC50 shRNA CDK7
[12] = Homo sapiens, OCI-AML-5, OCI-AML5 expressing shRNA CDK9, read-out: IC50 shRNA CDK9
[13] = Homo sapiens, OCI-AML-5, OCI-AML5 cells
[14] = OCI-AML5 expressing shRNA CCNK (cyclin K), read-out: IC50 shRNA CCNK
[15] = OCI-AML5 expressing shRNA CDK1, read-out: IC50 shRNA CDK1
[16] = OCI-AML5 expressing shRNA CDK2, read-out: IC50 shRNA CDK2
[17] = OCI-AML5 expressing shRNA CDK4, read-out: IC50 shRNA CDK4
[18] = OCI-AML5 expressing shRNA CDK7, read-out: IC50 shRNA CDK7
[19] = OCI-AML5 expressing shRNA CDK9, read-out: IC50 shRNA CDK9

T1 sequence (P50750 whole entry): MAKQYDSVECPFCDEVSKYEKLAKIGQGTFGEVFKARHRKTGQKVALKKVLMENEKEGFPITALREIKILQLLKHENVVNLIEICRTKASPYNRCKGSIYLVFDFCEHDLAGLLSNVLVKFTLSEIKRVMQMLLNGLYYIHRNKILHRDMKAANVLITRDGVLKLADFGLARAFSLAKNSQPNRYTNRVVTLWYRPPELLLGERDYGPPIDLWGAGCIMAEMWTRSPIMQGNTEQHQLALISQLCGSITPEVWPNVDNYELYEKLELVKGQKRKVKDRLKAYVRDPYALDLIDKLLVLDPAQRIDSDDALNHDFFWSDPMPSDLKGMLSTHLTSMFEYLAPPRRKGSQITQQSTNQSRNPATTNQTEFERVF
T1 sequence (O60563 whole entry partner): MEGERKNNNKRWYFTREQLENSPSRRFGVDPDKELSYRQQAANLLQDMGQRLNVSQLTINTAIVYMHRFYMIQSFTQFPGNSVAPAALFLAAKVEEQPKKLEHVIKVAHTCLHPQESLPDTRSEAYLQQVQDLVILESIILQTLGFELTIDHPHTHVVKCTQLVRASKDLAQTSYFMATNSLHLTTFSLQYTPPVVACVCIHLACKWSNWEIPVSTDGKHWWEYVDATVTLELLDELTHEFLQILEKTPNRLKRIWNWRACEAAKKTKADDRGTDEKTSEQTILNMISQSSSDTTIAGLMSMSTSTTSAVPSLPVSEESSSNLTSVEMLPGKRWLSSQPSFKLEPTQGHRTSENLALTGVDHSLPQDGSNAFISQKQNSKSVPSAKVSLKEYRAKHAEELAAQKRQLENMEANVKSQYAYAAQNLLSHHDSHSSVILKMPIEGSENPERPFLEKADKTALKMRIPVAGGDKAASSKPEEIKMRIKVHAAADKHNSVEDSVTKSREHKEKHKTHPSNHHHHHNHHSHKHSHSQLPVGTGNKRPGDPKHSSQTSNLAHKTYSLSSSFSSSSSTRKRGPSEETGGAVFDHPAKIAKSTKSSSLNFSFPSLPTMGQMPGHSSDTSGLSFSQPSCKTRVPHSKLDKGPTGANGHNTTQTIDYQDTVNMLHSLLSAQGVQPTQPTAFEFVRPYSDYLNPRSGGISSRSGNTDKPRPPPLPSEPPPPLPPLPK

SMILES | inhibition at 1 µM [1] | inhibition at 1 µM [2] | IC50 [3, 7] | IC50 [3, 8] | IC50 [3, 9] | IC50 [3, 10] | IC50 [3, 11] | IC50 [3, 12] | Class [3] | % degradation cyclin K-eGFP [4] | Ratio shCUL4A/shCTRL [5] | IC50 [6, 13] | class based on cellular selectivity [3] | further results
[N-]=[N+]=Nc1ccc(CC(=O)Nc2ncc(SCc3cccnc3)s2)cc1 [UOM-005062] | 99% | 63% | 921 nM | 1280 nM | 2320 nM | 2620 nM | 2520 nM | 1490 nM | mixed 1-2 | 45% | 1.35 | 2180 nM |  | 
O=C(Cc1ccccc1)Nc1ncc(SCc2cccnc2)s1 [UOM-005190] |  |  |  |  |  |  |  |  | 2 | 26% | 1.19 |  |  | % CDK9 inhibition [1]: 24%; % CDK1 inhibition [2]: 79%; IC50 [3, 14]: 2530 nM; IC50 [3, 15]: 815 nM; IC50 [3, 16]: 2690 nM; IC50 [3, 17]: 3280 nM; IC50 [3, 18]: 2900 nM; IC50 [3, 19]: 1660 nM; IC50 ([6]; OCI-AML5 cells): 2380 nM
O=C(Cc1ccc(F)cc1)Nc1ncc(SCc2cccnc2)s1 [UOM-005197] | 57% | 59% | 3580 nM | 1350 nM | 2690 nM | 3400 nM | 3360 nM | 1810 nM | 2 | 24% | 1.15 | 2790 nM | Class II | 
O=C(Cc1ccc(Cl)cc1)Nc1ncc(SCc2cccnc2)s1 [UOM-005198] | 32% | 51% | 3040 nM | 1300 nM | 2760 nM | 3430 nM | 3430 nM | 2100 nM | 2 | 33% | 1.12 | 2920 nM | Class II | 
O=C(Cc1ccc(Br)cc1)Nc1ncc(SCc2cccnc2)s1 [UOM-005199] | 100% | 60% | 1500 nM | 1180 nM | 2940 nM | 2830 nM | 2800 nM | 1780 nM | mixed 1-2 | 64% | 0.67 | 2560 nM |  | 
O=C(Cc1ccc(I)cc1)Nc1ncc(SCc2cccnc2)s1 [UOM-005200] | 62% | 87% | 368 nM | 1080 nM | 1280 nM | 1110 nM | 1510 nM | 1020 nM | 1 | 77% | 2.36 | 1060 nM | Class I (effective cyclin K MGDs (decreased IC50 in cyclin K depleted cells only, and >65% degradation of cyclin KeGFP)) | 
COc1ccc(CC(=O)Nc2ncc(SCc3cccnc3)s2)cc1 [UOM-005201] | 54% | 69% | 2010 nM | 1030 nM | 2880 nM | 3380 nM | 3110 nM | 1390 nM | 2 | 55% | 0.99 | 3000 nM | Class II | 
Cc1ccc(CC(=O)Nc2ncc(SCc3cccnc3)s2)cc1 [UOM-005202] | 50% | 65% | 2940 nM | 929 nM | 2830 nM | 3720 nM | 2860 nM | 1800 nM | 2 | 28% | 0.7 | 3400 nM |  | 
CC(C)(C)OC(=O)N1CCC(CC(=O)Nc2ncc(SCc3cccnc3)s2)C1 (stereo not shown) [UOM-005226] | 39% | 46% | > 10000 nM | 6250 nM | > 10000 nM | > 10000 nM | > 10000 nM | > 10000 nM | 2 | 2% | 1.24 | > 10000 nM |  | 
O=C(Cc1cccnc1)Nc1ncc(SCc2cccnc2)s1 [UOM-005249] | 100% | 100% | 1850 nM | 908 nM | 2320 nM | 2280 nM | 2240 nM | 1180 nM | 2 | 10% | 0.98 | 2450 nM | Class II | 
O=C(Cc1ccc2ccccc2c1)Nc1ncc(SCc2cccnc2)s1 [UOM-005428] | 67% | 70% | 135 nM | 502 nM | 544 nM | 509 nM | 578 nM | 369 nM | 1 | 80% | 2.81 | 361 nM | Class I (effective cyclin K MGDs (decreased IC50 in cyclin K depleted cells only, and >65% degradation of cyclin KeGFP)) | 
O=C(Cc1ccc(-c2ccccc2)cc1)Nc1ncc(SCc2cccnc2)s1 [UOM-005429] | 67% | 25% | 148 nM | 493 nM | 457 nM | 408 nM | 525 nM | 367 nM | 1 | 80% | 2.25 | 422 nM |  | 
C=C(C(=O)Nc1ncc(SCc2cccnc2)s1)c1ccc(CC(C)C)cc1 [UOM-005430] | 82% | 83% | 7680 nM | 7310 nM | > 10000 nM | > 10000 nM | > 10000 nM | 7720 nM | mixed 1-2 | 60% | 0.36 | > 10000 nM |  | 
COc1ccc2cc([C@H](C)C(=O)Nc3ncc(SCc4cccnc4)s3)ccc2c1 [UOM-005431] |  |  |  |  |  |  |  |  | 1 | 78% | 2.43 |  |  | % CDK9 inhibition [1]: 78%; % CDK1 inhibition [2]: 53%; IC50 [3, 14]: 396 nM; IC50 [3, 15]: 1080 nM; IC50 [3, 16]: 1160 nM; IC50 [3, 17]: 979 nM; IC50 [3, 18]: 1080 nM; IC50 [3, 19]: 876 nM; IC50 ([6]; OCI-AML5 cells): 895 nM
O=C(Cc1ccc(CNC(=O)OCC2c3ccccc3-c3ccccc32)cc1)Nc1ncc(SCc2cccnc2)s1 [UOM-005432] |  |  |  |  |  |  |  |  | 2 | 5% | 1.02 |  | Class II | % CDK9 inhibition [1]: 62%; % CDK1 inhibition [2]: 100%; IC50 [3, 14]: 753 nM; IC50 [3, 15]: 293 nM; IC50 [3, 16]: 886 nM; IC50 [3, 17]: 895 nM; IC50 [3, 18]: 807 nM; IC50 [3, 19]: 391 nM; IC50 ([6]; OCI-AML5 cells): 840 nM
CC(=O)Nc1ccc(CC(=O)Nc2ncc(SCc3cccnc3)s2)cc1 [UOM-005473] | 90% | 70% | 78.6 nM | 154 nM | 197 nM | 227 nM | 221 nM | 152 nM | mixed 1-2 | 67% | 2.59 | 210 nM |  | 
